{"source": "paper PMC5007466", "about": "“VCP recruitment to mitochondria causes mitophagy impairment and neurodegeneration in models of Huntington's disease” (Nature Communications, 2016)", "key": {"[1]": {"test_system": "HdhQ111 mouse striatal cells", "assay": "HMGB1 release after serum withdrawal", "assay_type": "cell-based", "conditions": "24 h serum withdrawal, 3 μM", "procedure": "HdhQ7 and Q111 mouse striatal cells were treated with the HV-3 peptide or the control peptide TAT (3 μM, each) in an FBS-free DMEM medium or in DMEM containing 10% serum for 24 h. Medium from the cultured cells was harvested. Proteins from the medium were purified using Amicon Ultra 0.5 ml centrifugal filters (Millipore). HMGB1 release into the medium was then analysed by Western blotting with anti-HMGB1 antibody. In parallel, cell death was determined by measuring LDH release into the culture medium, using LDH-Cytotoxicity Assay Kit II (Roche, USA) by following the manufacturer's instruction."}, "YAC128 mice": {"test_system": "YAC128 mice", "assay": "General motility, YAC128 (24 h locomotor activity)", "assay_type": "in vivo, mouse", "conditions": "YAC128, 3 mg/kg/day from 3 months; from 6 to 12 months of age, n=15–20", "description": "YAC128 (FVB-Tg(YAC128)53Hay/J, JAX stock number: 004938) breeders (FVB/N genetic background) were purchased from Jackson Laboratories. The YAC128 mice contain a full-length human huntingtin gene modified with a 128 CAG repeat expansion in exon 1. The mice were mated, bred and genotyped in the animal facility of Case Western Reserve University. Male mice at the ages of 2, 3, 6, 9 and 12 months were used in the study.\nYAC128 mice (Tg) and their age-matched wt littermates were implanted with an osmotic pump containing TAT control peptide or HV-3 peptide (3 mg/kg/day, each) starting from the age of 3 months. The pump was replaced once every month. By the age of 12 months, the treatments were terminated and the mouse samples were harvested for analysis.\nGross locomotor activity was assessed in R6/2 mice and age-matched wt littermates at the ages of 13 weeks and in YAC128 mice and age-matched wt littermates at the ages of 2, 3, 6, 9, and 12 months. In an activity chamber (Omnitech Electronics, Inc), mice were placed in the center of the chamber and allowed to explore while being tracked by an automated beam system (Vertax, Omnitech Electronics Inc). Distance moved, horizontal, vertical, and rearing activities were recorded. Because R6/2 mice were sensitive to changes in environment and handling, we only conducted one-hour locomotor activity analysis for R6/2 mice and wt littermates. […]"}, "HD mouse striatal cells": {"test_system": "HD mouse striatal cells", "assay": "ER stress response (GRP78 western blot)", "assay_type": "cell-based", "conditions": "thapsigargin 1 μM or tunicamycin 10 μg/ml, 16 h, with HV-3 3 µM", "procedure": "mouse striatal cells were treated with thapsigargin (1μM) or tunicamycin (10μ g/ml) for 16 hours i n the presence or absence of HV -3 (3 µM). GRP78 total protein levels were determined by western blot analysis. Representative blots of three independent experiments are shown. Actin was used here as a loading control. (b) Tw e n t y -four hours of serum starvation was performed in HD mouse striatal cells.\nCaspase-3 activity analysis was performed in the indicated groups. Data are mean ± SEM of three independent experiments. (c) Flag-VCP and GFP-LC3B were co-transfected into HdhQ7 striatal cells.\nTotal lysates were isolated after 36 hours of transfection. The GFP -LC3B levels were examined by western blot analysis. Actin was used as a loading control. Histogram: quantitation of GFP-LC3B total protein level. Data are mean ± SEM of three independent experiments.\n(1 picture or pasted object on this page, not shown here)"}, "[2]": {"target": "T1, full-length mouse VCP/p97 (Mus musculus, UniProt Q01853)", "T1 construct": "The full-length mouse VCP/p97 (residues 2–806) was expressed with an N-terminal 6xHis-tag; 6xHis (N); host or cells: Escherichia coli Rosetta (DE3)", "T1 sequence (Q01853 2-806)": "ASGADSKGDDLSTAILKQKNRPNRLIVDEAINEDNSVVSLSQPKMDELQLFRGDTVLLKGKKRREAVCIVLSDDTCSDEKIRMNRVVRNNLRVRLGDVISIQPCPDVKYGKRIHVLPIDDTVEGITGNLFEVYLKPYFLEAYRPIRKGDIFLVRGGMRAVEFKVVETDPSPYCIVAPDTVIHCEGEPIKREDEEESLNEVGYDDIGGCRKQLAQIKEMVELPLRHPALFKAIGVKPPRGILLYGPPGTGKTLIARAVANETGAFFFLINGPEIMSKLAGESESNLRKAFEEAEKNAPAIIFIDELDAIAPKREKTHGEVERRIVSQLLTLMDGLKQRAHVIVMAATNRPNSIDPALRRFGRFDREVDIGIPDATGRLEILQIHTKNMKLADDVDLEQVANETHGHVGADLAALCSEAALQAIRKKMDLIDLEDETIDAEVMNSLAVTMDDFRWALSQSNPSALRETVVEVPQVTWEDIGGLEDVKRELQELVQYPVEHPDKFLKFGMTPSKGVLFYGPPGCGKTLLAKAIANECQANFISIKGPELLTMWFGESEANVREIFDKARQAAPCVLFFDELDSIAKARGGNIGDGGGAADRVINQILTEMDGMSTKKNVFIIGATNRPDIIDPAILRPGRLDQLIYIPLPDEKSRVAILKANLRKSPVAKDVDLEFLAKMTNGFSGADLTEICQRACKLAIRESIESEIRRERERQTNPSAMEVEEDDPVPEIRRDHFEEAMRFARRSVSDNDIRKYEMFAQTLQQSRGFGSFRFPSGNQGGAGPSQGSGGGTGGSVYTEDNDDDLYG", "assay": "Isothermal titration calorimetry (ITC)", "assay_type": "binding", "conditions": "15 °C", "procedure": "The full-length mouse VCP/p97 (residues 2–806) was expressed with an N-terminal 6xHis-tag (Addgene: plasmid # 12373) in the Rosetta (DE3) strain of Escherichia coli (Novagen) as previously described. Briefly, the cells were grown in LB media supplemented with Kanamycin and induced at OD∼1.0 for 16 h at 18 °C. Cells were homogenized in Buffer A (500 mM KCl, 25 mM Hepes pH 8.0, and 2 mM β-mercaptoethanol) in the presence of EDTA-free Complete Protease Inhibitor (Roche) and 2 mM PMSF. The lysate was cleared by centrifugation at 45,000 g for 1 h at 4 °C. Supernatant was incubated with 2 ml of Ni-NTA agarose resin (Qiagen) for 2 h at 4 °C. The resin was washed with Buffer A containing 50 mM imidazole and eluted with Buffer A containing 400 mM imidazole. VCP protein was further purified by passing through Superdex 200 increase 10/300 GL (GE Healthcare) size exclusion column equilibrated with Buffer B (250 mM KCL, 25 mM Hepes pH 8.0, 2 mM β-mercaptoethanol and 1 mM MgCl2). The fractions containing the pure sample, as determined by SDS–PAGE analysis, were pooled and concentrated to a final concentration of ∼3–5 mg ml^−1.\nBinding of HV-3 peptide to VCP was measured by isothermal titration calorimetry on a MicroCal ITC200 (GE Healthcare). Before the calorimetric titrations, the protein was exchanged into Buffer C (100 mM NaCl, 10 mM Hepes, pH 8.0) on a PD-10 column (Amersham Biosciences) and concentrated to ∼5–6 mg ml^−1. The final concentration of protein in the cell (∼60–70 μM) was determined on a NanoDrop Spectrophotometer (Thermo Scientific NanoDrop 2000) using a molecular weight of 89.32 KDa and a molar extinction coefficient of […]. The HV-3 peptide was dissolved in Buffer C to a final concentration of 2 mM and loaded into the syringe. The measurements were made at a constant cell temperature of 15 °C and repeated at least three times. Thirty successive injections of 1.2 μl each were titrated into the cell with constant stirring at 1,000 r.p.m. An equilibration time of 150 s was set between consecutive injections. The binding isotherms were analysed with the MicroCal Origin software. For measurements of heat of dilution, the protein sample in the cell was replaced by Buffer C and all other conditions were kept identical."}}}
{"smiles": "CSCC[C@H](NC(=O)[C@@H](NC(=O)[C@H](CC(C)C)NC(=O)[C@@H](NC(=O)[C@H](Cc1c[nH]cn1)NC(=O)CCCCCNC(=O)[C@H](CCCNC(=N)N)NC(=O)[C@H](CCCNC(=N)N)NC(=O)[C@H](CCCNC(=N)N)NC(=O)[C@H](CCC(N)=O)NC(=O)[C@H](CCCNC(=N)N)NC(=O)[C@H](CCCNC(=N)N)NC(=O)[C@H](CCCCN)NC(=O)[C@H](CCCCN)NC(=O)[C@H](CCCNC(=N)N)NC(=O)CNC(=O)[C@@H](N)Cc1ccc(O)cc1)C(C)C)C(C)C)C(=O)N[C@@H](CS)C(=O)N[C@@H](C)C(=O)N[C@H](C(N)=O)[C@@H](C)O", "note": "[HV-3]", "values": [{"measurement": "HMGB1 release", "setting": "[1]", "value": "reduced the release of high mobility group box 1 (HMGB1)"}, {"measurement": "general movement activity", "setting": "YAC128 mice", "value": "improved general movement activity"}, {"measurement": "ER stress response (GRP78)", "setting": "HD mouse striatal cells", "value": "no effect on the ER stress response"}, {"measurement": "Kd", "setting": "[2]; 100 mM NaCl, 10 mM Hepes pH 8.0, protein ∼60–70 μM, HV-3 2 mM in syringe, repeated at least three times", "value": "17.9 ± 7", "unit": "µM"}, {"measurement": "n (stoichiometry)", "setting": "[2]; pH 8.0", "value": "2.02±0.23"}, {"measurement": "ΔH", "setting": "[2]; pH 8.0", "value": "-2.145 ± 0.65", "unit": "kcal/mol"}, {"measurement": "ΔS", "setting": "[2]; pH 8.0", "value": "13.97±3.4", "unit": "cal mol^−1 deg^−1"}]}
